Assay: log D7.4 measurement (1-octanol/PBS pH 7.4)
Type: physicochemical
Experimental: Procedure for pKa and log D7.4 measurements. The pKa was determined using pH-metric Method from DMSO Stock Solution. Procedure for Log D determinations: 15 µL of stock solutions of test compounds and control compound was placed in order into their proper 96-well rack. 500 µL of PBS saturated 1-octanol was added into each vial of the cap-less Log D plate followed by the addition of 500 µL of 1-octanol saturated PBS (pH 7.4). One stir stick was added to each vial and a molded PTFE/Silicone plug was used to seal each vial. Then the Log D plate was transferred to the Eppendorf Thermomixer Comfort plate shaker and shaken at 25°C at 1,100 RPM for 1 hour. After completion of 1 hour, plugs were removed and the stir sticks were removed using a big magnet. The samples were then centrifuged at 25°C at 20,000 g for 20 minutes to separate the phases, and pipette and syringe were used to remove the upper (1-octanol) and lower (buffer) phases to the empty tubes, respectively. Aliquots of 5 µL were taken from upper phases followed by addition of 495 µL of a mixture of H2O and acetonitrile (1:1 in v/v). Vortex for 1 minute, and then aliquots of 50 µL were taken from the diluent followed by addition of 450 µL of a mixture of H2O and acetonitrile (1:1 in v/v). And aliquots of 50 µL were taken from lower phases followed by addition of 450 µL of a mixture of H2O and acetonitrile (1:1 in v/v). 200 μL of diluent was transferred to a new 96-well plate for LC-MS/MS analysis. The dilution factor was changed according to the Log D value and the LC-MS signal response. The concentrations of test compound and control compound in 1-octanol/buffer solution were evaluated by LC-MS/MS. The Log D values of the test compounds and control compound were calculated as follows: […]

In the case of `CNCc1cc(-c2ccc(OCC3CC3)cc2F)n(S(=O)(=O)c2cccnc2)c1.Cl.Cl` [SH-337, 1-(5-(4-(cyclopropylmethoxy)-2-fluorophenyl)-1-(pyridin-3-ylsulfonyl)-1H-pyrrol-3-yl)-N-methylmethanamine dihydrochloride], the logD at 1 h (1-octanol/PBS, pH 7.4, pH 7.4) is reported as 1.3 and the “log D7.4” value (pH 7.4) is reported as 1.28.

From PMC9343080, “Distribution- and Metabolism-Based Drug Discovery: A Potassium-Competitive Acid Blocker as a Proof of Concept” (Research, 2022)
